Blank lines part the entries; values can stand above or below the molecule they belong to.
Tests used:
[1] = target: Platelet-activating factor receptor (Homo sapiens) (UniProt P25105); test: Platelet Activating Factor (PAF) Eurofins-Panlabs radioligand binding assay; set-up: ligand concentration 1 nM; details: Compound concentration 10.0 uM
[2] = target: Serine/threonine-protein kinase Nek8 (Homo sapiens, UniProt Q86SG6); test: Nek8(NEK8LGRI) Takeda global kinase panel
[3] = target: Serine/threonine-protein kinase N2 (Homo sapiens, UniProt Q16513); test: PKN2 [PRK2(PKN2LGG5)] Takeda global kinase panel
[4] = target: STE20/SPS1-related proline-alanine-rich protein kinase (Homo sapiens, UniProt Q9UEW8); test: STLK3(ST39LGRJ) Takeda global kinase panel
[5] = target: 5-hydroxytryptamine receptor 1E (Homo sapiens) (UniProt P28566); details: Compound concentration 10.0 uM
[6] = target: 5-hydroxytryptamine receptor 2B (Homo sapiens) (UniProt P41595); details: Compound concentration 10.0 uM
[7] = target: 5-hydroxytryptamine receptor 7 (Homo sapiens) (UniProt P34969); details: Compound concentration 10.0 uM
[8] = target: D(3) dopamine receptor (Homo sapiens) (UniProt P35462); details: Compound concentration 10.0 uM
[9] = target: Delta-type opioid receptor (Homo sapiens) (UniProt P41143); details: Compound concentration 10.0 uM
[10] = target: Kappa-type opioid receptor (Homo sapiens) (UniProt P41145); details: Compound concentration 10.0 uM
[11] = target: T1, GABA-A receptor; anion channel (Rattus norvegicus) (UniProt O09028+P15431+P18506+P18508+P19969+P20236+P23574+P23576+P28471+P28473+P30191+P62813+P63079+P63138+Q91ZM7+Q9ES14); details: Compound concentration 10.0 uM
[12] = target: Alpha-2A adrenergic receptor (Homo sapiens) (UniProt P08913); details: Compound concentration 10.0 uM
Chain of Alpha-2A adrenergic receptor (Homo sapiens) (P08913 whole entry): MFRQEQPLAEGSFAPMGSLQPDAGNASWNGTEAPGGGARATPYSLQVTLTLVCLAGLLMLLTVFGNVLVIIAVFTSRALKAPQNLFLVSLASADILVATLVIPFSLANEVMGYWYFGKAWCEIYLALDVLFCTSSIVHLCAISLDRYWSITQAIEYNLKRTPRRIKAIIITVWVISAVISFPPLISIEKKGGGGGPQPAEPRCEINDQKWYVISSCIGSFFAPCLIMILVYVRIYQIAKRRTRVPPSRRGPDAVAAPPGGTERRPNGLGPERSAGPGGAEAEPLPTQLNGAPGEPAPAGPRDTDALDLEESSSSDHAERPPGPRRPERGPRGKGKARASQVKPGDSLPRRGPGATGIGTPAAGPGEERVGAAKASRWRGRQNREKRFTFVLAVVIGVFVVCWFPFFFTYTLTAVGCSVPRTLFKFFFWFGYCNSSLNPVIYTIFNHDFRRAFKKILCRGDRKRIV

[13] = target: Beta-2 adrenergic receptor (Homo sapiens) (UniProt P07550); details: Compound concentration 10.0 uM
[14] = target: Muscarinic acetylcholine receptor M3 (Homo sapiens) (UniProt P20309); details: Compound concentration 10.0 uM
[15] = target: Muscarinic acetylcholine receptor M5 (Homo sapiens) (UniProt P08912); details: Compound concentration 10.0 uM
[16] = target: Beta-3 adrenergic receptor (Homo sapiens) (UniProt P13945); details: Compound concentration 10.0 uM
[17] = target: T1, GABA-A receptor; anion channel (Rattus norvegicus); details: Compound concentration 10.0 uM; remark: listed apart in the source
[18] = target: Alpha-1D adrenergic receptor (Homo sapiens) (UniProt P25100); details: Compound concentration 10.0 uM
[19] = target: Sigma intracellular receptor 2 (Homo sapiens) (UniProt Q5BJF2); details: Compound concentration 10.0 uM
[20] = target: Beta-1 adrenergic receptor (Homo sapiens) (UniProt P08588); details: Compound concentration 10.0 uM
Chain of Beta-1 adrenergic receptor (Homo sapiens) (P08588 whole entry, looked up): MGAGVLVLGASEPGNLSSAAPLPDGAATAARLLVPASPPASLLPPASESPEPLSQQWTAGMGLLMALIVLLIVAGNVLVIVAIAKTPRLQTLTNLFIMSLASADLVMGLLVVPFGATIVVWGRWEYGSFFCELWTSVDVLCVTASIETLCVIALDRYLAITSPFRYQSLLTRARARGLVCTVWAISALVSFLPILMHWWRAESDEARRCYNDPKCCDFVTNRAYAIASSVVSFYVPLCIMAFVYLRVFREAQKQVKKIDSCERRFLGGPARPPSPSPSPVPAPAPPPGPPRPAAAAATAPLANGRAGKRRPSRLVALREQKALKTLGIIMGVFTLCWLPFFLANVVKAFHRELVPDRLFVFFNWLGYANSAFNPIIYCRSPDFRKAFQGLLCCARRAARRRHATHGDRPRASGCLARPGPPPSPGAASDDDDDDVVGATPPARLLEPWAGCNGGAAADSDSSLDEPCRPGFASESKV

[21] = target: L-type calcium channel, benzothiazepine site (Cav1.2 alpha-1C) (Homo sapiens, UniProt Q13936); test: Inhibition of Calcium Channel L-Type, Benzothiazepine at 10 µM in the Eurofins-Panlabs radioligand binding assay (Eurofins_assay_214510); set-up: ligand concentration 2 nM, non-specific ligand with concentration 10 µM Diltiazem, incubation time 3h, incubation temperature 4 °C; details: male, Wistar, rat, whole brain of rats, probe [3H] Diltiazem; compound concentration 10 uM; target entry is the homologue from another species
[22] = target: voltage-gated sodium channel, site 2 (Rattus norvegicus, UniProt F1LQQ7+O08562+O88420+O88457+P04774+P04775+P08104+P15389+P15390+Q62968); test: Inhibition of Sodium Channel, Site 2 at 10 µM in the Eurofins-Panlabs radioligand binding assay (Eurofins_assay_279510); assay type: protein assay; set-up: ligand concentration 5 nM, non-specific ligand with concentration 100 µM Veratridine, incubation time 60 min, incubation temperature 37 °C; details: male, Wistar, whole brain (except cerebellum) membranes of rats, probe [3H] Batrachotoxinin, compound concentration 10 uM
[23] = target: Inhibitor of nuclear factor kappa-B kinase subunit alpha (Homo sapiens, UniProt O15111); test: IKKalpha(CHUKLGP1) Takeda global kinase panel
Chain of Inhibitor of nuclear factor kappa-B kinase subunit alpha (O15111 whole entry): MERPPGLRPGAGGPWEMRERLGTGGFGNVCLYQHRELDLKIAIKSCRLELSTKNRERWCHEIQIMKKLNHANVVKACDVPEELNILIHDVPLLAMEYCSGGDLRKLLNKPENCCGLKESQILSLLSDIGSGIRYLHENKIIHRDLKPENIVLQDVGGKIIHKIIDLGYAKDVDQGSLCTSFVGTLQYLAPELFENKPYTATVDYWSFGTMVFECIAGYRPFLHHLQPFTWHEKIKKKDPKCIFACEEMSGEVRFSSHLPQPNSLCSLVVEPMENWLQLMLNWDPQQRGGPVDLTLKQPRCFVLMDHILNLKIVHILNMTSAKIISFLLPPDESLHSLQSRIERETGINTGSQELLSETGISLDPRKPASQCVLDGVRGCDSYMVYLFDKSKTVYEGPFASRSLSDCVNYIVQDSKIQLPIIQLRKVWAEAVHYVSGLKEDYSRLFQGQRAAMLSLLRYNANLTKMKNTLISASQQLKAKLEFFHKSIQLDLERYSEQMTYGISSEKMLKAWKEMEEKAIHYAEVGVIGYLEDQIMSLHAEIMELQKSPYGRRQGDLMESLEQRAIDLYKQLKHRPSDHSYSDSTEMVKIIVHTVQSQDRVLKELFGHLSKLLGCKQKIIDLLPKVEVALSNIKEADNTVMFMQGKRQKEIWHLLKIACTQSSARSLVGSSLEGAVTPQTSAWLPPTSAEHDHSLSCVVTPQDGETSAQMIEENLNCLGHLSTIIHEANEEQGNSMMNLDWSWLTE

[24] = target: Inhibitor of nuclear factor kappa-B kinase subunit beta (Homo sapiens, UniProt O14920); test: IKKbeta(IKBBLHY1) Takeda global kinase panel
[25] = target: MAP kinase-activated protein kinase 2 (Homo sapiens, UniProt P49137); test: MAPKAPK2(MPK2LGRH) Takeda global kinase panel
[26] = target: 5'-AMP-activated protein kinase catalytic subunit alpha-2 (Homo sapiens, UniProt P54646); test: AMPKalpha2(PRA2LGY1) Takeda global kinase panel
[27] = target: Activin receptor type-1B (Homo sapiens, UniProt P36896); test: ALK4(AC1BLGF1) Takeda global kinase panel
Chain of Activin receptor type-1B (P36896 whole entry): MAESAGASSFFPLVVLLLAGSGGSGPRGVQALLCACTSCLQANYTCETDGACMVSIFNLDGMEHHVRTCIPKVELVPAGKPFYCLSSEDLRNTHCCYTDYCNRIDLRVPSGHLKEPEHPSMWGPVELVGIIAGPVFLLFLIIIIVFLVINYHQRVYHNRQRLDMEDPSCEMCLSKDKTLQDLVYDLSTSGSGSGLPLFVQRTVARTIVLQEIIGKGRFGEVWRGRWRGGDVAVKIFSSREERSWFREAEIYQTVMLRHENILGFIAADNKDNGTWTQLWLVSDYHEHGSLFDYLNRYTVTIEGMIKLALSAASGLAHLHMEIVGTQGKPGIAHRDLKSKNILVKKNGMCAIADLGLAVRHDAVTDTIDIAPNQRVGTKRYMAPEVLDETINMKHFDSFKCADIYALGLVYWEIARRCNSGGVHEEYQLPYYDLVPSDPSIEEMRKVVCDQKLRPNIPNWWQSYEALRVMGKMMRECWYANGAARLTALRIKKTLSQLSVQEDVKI

[28] = target: Calcium/calmodulin-dependent protein kinase type II subunit alpha (Homo sapiens, UniProt Q9UQM7); test: CaMK2alpha(CA2ACGT1) Takeda global kinase panel
Chain of Calcium/calmodulin-dependent protein kinase type II subunit alpha (Q9UQM7 whole entry): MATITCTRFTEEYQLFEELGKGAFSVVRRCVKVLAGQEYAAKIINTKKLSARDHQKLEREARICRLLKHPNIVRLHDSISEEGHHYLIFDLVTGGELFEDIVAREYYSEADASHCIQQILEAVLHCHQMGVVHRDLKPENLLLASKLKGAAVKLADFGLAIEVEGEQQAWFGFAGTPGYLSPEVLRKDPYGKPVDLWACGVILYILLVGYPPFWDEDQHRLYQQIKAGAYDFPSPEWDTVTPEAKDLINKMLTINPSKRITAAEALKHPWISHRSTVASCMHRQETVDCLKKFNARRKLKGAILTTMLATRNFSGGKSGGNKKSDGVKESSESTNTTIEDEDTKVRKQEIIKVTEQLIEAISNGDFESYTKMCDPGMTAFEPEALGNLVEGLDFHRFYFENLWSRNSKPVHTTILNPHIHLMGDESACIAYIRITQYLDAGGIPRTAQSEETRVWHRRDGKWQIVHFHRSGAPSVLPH

[29] = target: Calcium/calmodulin-dependent protein kinase type II subunit beta (Homo sapiens, UniProt Q13554); test: CaMK2beta(CA2BCGT1) Takeda global kinase panel
Chain of Calcium/calmodulin-dependent protein kinase type II subunit beta (Q13554 whole entry): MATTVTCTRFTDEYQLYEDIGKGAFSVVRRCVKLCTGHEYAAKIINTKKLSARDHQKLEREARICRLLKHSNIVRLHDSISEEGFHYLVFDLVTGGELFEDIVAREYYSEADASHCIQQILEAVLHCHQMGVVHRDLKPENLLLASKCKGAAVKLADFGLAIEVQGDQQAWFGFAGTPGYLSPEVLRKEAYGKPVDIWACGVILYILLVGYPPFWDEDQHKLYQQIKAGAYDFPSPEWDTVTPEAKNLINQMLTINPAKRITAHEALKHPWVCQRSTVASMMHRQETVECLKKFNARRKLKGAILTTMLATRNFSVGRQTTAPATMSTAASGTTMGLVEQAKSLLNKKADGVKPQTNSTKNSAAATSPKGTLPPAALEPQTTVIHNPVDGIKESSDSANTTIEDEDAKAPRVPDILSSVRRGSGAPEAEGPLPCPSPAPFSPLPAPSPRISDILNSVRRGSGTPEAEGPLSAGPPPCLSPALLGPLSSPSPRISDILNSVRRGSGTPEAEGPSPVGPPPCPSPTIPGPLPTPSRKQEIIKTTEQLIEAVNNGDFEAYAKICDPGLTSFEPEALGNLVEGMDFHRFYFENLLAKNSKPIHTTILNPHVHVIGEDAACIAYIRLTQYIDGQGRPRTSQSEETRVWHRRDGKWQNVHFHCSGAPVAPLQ

[30] = target: Calcium/calmodulin-dependent protein kinase kinase 2 (Homo sapiens, UniProt Q96RR4); test: CAMKK2(CAK2LGT5) Takeda global kinase panel
[31] = target: Ephrin type-A receptor 2 (Homo sapiens, UniProt P29317); test: EphA2(EPA2LGY1) Takeda global kinase panel
Chain of Ephrin type-A receptor 2 (P29317 whole entry): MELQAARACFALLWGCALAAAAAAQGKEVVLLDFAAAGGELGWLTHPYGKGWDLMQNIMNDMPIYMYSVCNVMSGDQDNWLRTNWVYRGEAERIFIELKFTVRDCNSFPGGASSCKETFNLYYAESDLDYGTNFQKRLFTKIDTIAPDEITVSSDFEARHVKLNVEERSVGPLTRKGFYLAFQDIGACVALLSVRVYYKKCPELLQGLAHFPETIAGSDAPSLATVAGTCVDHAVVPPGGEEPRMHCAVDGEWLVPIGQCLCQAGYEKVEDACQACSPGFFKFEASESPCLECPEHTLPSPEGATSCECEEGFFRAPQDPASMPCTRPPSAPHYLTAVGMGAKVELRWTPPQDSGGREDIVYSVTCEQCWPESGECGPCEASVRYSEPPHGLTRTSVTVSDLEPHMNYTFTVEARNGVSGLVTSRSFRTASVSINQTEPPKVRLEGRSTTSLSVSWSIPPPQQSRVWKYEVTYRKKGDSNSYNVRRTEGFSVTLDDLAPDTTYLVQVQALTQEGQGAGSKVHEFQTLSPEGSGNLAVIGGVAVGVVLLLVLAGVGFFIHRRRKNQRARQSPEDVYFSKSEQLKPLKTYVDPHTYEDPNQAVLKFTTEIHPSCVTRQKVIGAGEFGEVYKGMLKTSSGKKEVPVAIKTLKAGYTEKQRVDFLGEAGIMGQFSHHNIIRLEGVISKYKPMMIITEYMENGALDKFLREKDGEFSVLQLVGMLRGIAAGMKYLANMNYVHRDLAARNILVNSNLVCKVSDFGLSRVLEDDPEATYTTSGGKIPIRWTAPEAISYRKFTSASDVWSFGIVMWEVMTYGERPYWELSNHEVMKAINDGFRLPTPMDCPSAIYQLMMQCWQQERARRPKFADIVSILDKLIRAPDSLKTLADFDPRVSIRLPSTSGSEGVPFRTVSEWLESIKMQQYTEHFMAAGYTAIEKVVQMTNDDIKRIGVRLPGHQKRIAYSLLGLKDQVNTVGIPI

[32] = target: Fibroblast growth factor receptor 2 (Homo sapiens, UniProt P21802); test: FGFR2(FGF2LGF1) Takeda global kinase panel
[33] = target: Homeodomain-interacting protein kinase 3 (Homo sapiens, UniProt Q9H422); test: HIPK3(HIP3LGF1) Takeda global kinase panel
[34] = target: Leucine-rich repeat serine/threonine-protein kinase 2 (Homo sapiens, UniProt Q5S007); test: LRRK2(LRR2PGF1) Takeda global kinase panel
[35] = target: cGMP-dependent protein kinase 1 (Homo sapiens, UniProt Q13976); test: PKG1(PRG1LFP1) Takeda global kinase panel
[36] = target: Tribbles homolog 1 (Homo sapiens, UniProt Q96RU8); test: Trb1(TRI1PARP) Takeda global kinase panel
Chain of Tribbles homolog 1 (Q96RU8 whole entry): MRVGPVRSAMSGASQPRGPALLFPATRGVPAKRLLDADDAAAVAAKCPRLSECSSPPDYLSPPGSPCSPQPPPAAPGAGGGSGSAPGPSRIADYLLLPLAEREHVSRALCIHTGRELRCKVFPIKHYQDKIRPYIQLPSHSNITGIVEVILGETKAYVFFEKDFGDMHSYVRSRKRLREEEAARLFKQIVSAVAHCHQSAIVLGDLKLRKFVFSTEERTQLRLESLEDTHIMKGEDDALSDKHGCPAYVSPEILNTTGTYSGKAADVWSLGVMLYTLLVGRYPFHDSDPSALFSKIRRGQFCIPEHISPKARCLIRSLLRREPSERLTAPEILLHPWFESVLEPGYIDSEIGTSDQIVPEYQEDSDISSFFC

[37] = target: Testis-specific serine/threonine-protein kinase 3 (Homo sapiens, UniProt Q96PN8); test: TSSK3(TSS3LGRM) Takeda global kinase panel
[38] = target: Bromodomain-containing protein 2 (Homo sapiens, UniProt P25440); test: BRD2(BRD2LHRC) Takeda global kinase panel
[39] = target: Glutamate NMDA receptor (Rattus norvegicus) (UniProt P35439+Q00959+Q00960+Q00961+Q62645+Q8VHN2+Q9R1M7); details: Compound concentration 10.0 uM

Chain of Platelet-activating factor receptor (Homo sapiens) (P25105 whole entry): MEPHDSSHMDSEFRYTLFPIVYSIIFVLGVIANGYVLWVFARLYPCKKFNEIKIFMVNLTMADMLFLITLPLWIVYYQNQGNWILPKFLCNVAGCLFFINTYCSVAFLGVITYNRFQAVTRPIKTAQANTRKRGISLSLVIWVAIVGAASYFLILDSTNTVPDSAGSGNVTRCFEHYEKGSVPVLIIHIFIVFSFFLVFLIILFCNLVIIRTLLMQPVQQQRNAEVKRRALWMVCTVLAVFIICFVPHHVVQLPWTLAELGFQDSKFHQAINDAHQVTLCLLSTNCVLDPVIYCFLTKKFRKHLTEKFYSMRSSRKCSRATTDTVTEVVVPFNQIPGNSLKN

Structure (SMILES): CN1C(=O)[C@@H](N2CCc3cn(Cc4ccccc4)nc3C2=O)COc2ccccc21 [TP-030-1]
inhibition [1]: 2%
IC50 [2]: 1000 nM
IC50 [3]: 1000 nM
IC50 [4]: 1000 nM
inhibition [5]: -1.55%
inhibition [6]: 12%
inhibition [7]: -1.17%
inhibition [8]: -4.81%
inhibition [9]: 28.8%
inhibition [10]: 14.7%
inhibition [11]: 10.5%
inhibition [12]: 19.1%
inhibition [13]: 9.59%
inhibition [14]: 0.09%
inhibition [15]: 6.63%
inhibition [16]: 9.8%
inhibition [17]: -3.98%
inhibition [18]: -0.3%
inhibition [19]: 27%
inhibition [20]: -8%

IC50 [23]: 1000 nM
IC50 [24]: 1000 nM
IC50 [25]: 1000 nM
IC50 [26]: 1000 nM
IC50 [27]: 1000 nM
IC50 [28]: 1000 nM
IC50 [29]: 1000 nM
IC50 [30]: 1000 nM
IC50 [31]: 1000 nM
IC50 [32]: 1000 nM
IC50 [33]: 1000 nM
IC50 [34]: 1000 nM
IC50 [35]: 1000 nM
IC50 [36]: 1000 nM
IC50 [37]: 1000 nM
IC50 [38]: 1000 nM
inhibition [39]: 4%
Structure (SMILES): CN1C(=O)[C@@H](N2CCc3cn(CC4CCS(=O)(=O)CC4)nc3C2=O)COc2ccccc21 [TP-030n]
inhibition at 3 h, 10 µM [21]: 2% (not active)
inhibition at 60 min, 10 µM [22]: 9% (not active)

From ChEMBL document CHEMBL4507327 (2021)
